# Reference: ChEMBL document CHEMBL2346622, “Novel tacrine-related drugs as potential candidates for the treatment of Alzheimer's disease” (Bioorg Med Chem Lett, 2013)
# What was measured:
# Acetylcholinesterase = molecular target: T1, Acetylcholinesterase (Rattus norvegicus, UniProt P37136); assay: (§1) Inhibition of rat brain acetylcholinesterase
# T1 sequence (P37136 whole entry): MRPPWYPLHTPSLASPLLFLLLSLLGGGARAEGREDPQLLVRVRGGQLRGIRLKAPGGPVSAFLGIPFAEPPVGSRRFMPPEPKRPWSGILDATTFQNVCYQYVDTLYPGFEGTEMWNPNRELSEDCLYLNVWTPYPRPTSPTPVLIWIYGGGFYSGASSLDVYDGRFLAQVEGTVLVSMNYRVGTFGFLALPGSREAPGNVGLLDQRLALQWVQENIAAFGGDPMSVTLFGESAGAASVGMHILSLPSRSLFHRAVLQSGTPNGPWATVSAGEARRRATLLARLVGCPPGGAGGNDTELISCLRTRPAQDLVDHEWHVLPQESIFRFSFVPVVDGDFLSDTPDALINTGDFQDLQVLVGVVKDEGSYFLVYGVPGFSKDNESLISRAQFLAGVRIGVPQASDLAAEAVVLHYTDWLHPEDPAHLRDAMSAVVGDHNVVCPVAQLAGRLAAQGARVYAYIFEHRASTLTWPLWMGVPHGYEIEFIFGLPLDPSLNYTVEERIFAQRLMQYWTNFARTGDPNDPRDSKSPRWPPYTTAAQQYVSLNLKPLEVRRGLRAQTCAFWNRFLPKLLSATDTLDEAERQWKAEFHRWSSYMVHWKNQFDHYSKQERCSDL
# [1] = molecular target: T2, Acetylcholinesterase (Rattus norvegicus) (UniProt P37136); assay: as §1
# T2 sequence (whole entry): T1 sequence (P37136 whole entry)
compound,measurement,setting,value
c1ccc2c(NCCCCCCCN3CCCCC3)c3c(nc2c1)CCCC3,IC50,Acetylcholinesterase,20.4 nM
same,Imax,[1],95%
